From patent US11046690B2, “Pyridazinones and methods of use thereof” (Goldfinch Bio, Inc., priority 2018, dated 2021) come the findings set out here.

pIC50: −log10 of the molar value.

In the assay the target is T1, TRPC4 (Homo sapiens, UniProt Q9UBN4).
T1 construct: expressed in transfected cells
T1 sequence (Q9UBN4 1-982 isoform Q9UBN4-5): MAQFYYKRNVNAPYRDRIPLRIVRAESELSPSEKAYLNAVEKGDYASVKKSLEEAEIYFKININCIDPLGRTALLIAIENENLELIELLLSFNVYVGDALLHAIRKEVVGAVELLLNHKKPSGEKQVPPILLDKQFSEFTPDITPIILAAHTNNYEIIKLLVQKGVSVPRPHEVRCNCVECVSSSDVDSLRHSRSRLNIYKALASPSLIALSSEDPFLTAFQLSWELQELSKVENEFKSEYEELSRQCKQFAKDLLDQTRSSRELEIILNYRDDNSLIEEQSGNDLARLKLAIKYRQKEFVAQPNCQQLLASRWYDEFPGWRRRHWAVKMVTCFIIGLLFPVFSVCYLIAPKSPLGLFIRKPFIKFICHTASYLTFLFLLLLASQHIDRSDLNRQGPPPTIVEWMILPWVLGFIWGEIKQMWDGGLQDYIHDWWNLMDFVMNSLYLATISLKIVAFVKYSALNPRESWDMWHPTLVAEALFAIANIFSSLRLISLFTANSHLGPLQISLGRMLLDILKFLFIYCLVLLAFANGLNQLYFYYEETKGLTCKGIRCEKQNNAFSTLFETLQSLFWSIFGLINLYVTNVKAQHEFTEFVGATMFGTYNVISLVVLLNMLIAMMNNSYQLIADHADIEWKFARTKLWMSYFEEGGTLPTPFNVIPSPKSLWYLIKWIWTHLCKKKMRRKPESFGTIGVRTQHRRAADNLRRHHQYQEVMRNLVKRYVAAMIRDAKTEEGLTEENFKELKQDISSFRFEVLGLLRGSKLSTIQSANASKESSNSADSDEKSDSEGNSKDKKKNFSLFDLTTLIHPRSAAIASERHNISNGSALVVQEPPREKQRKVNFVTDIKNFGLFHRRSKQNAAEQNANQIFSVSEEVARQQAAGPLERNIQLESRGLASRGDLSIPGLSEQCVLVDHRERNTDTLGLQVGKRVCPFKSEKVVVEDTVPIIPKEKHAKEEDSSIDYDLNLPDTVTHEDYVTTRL
Put plainly: TRPC4 activity assay (FLIPR calcium fluorescence, Englerin A stimulation). The assay is classed as cell-based. The settings on record: HEK-TREx hTRPC4 cells, 100 nM Englerin A stimulation; read-out: TRPC4 (IC50 class). The protocol:
ICLN-1694 cells (HEK-TREx hTRPC4) expressing TRPC4 were generated as follows. Commercially available HekTrex-293 cells were seeded at 0.7×10^6 cells/well in a 1×6-well plate 24 hrs prior to transfection using 2 mL cell growth media containing no antibiotics (1× DMEM/high glucose (Hyclone #SH30022.02); 10%0/fetal bovine serum (Sigma) 2 mM sodium pyruvate, 10 mM HEPES). […] On day 2, 2 μg of plasmid DNA plus 6 μl of Xtreme-GENE HP reagent in Optimem (200 μl total volume) was prepared and incubated for 15 min at room temperature. This plasmid solution was then gently overlayed dropwise onto each well and the plate was gently swirled to mix complex with the media for approximately 30 seconds. Transfected cells were incubated at 37° C. in a 10% C02 incubator for 24 hrs. The transfected cells were harvested and transferred into 2×150 mm dishes containing cell growth media with no antibiotics at 37° C.
The next day selection was initiated to generate a stable pool by adding cell growth media containing 150 μg/mL Hygromycin and 5 μg/mL Blasticidin and cells were allowed to grow. Media with the selection agent was changed every 1-2 days as needed to remove dead cells. After 7 days, the hygromycin concentration was reduced to 75 μg/mL and cells growth was allowed to continue.
Single clones were selected as follows. The stable pool was diluted to 10 cells/mL and seeded (100 μl/well) into 24×96 well plates (˜1 cell/well) and allowed to grow for 7 days in cell growth media. Fresh media (100 μl) was added and the cells allowed to grow for another 1-2 weeks and then stored frozen or used immediately.
10-point dose response curves were generated using the Echo-550 acoustic dispenser. Compound source plates were made by serially diluting compound stocks to create 10 mM, 1 mM, and 0.1 mM solutions in DMSO into Echo-certified LDV plates. The Echo then serially spotted 100% DMSO stock solutions into source dose response plates to generate a 4-fold dilution scheme. 100% DMSO was added to the spotted dose response plates to bring the final volume to 5 μl. […] of the dose response stock plate was then spotted into pre-incubation and stimulation assay plates. 50 μl of pre-incubation buffer and 100 μl of stimulation buffer was then added to the plates resulting in a final assay test concentration range of 30 μM to 0.0001 μM with a final DMSO concentration of 0.3%.
ICLN-1694 cells (HEK-TREx hTRPC4) were plated onto 384 well, black pdl-coated microplates and maintained in cell growth media supplemented with 1 μg/mL tetracycline the day prior to use for experiments. TRPC4 expression was induced by the application of 1 μg/mL tetracycline at the time of plating. […] Cells were incubated at room temperature, protected from light, for 60-90 minutes. After the incubation period, the dye was removed and replaced with 10 μl of EBSS. Cell, pre-incubation and stimulation plates were loaded onto the FLIPR-II and the assay was initiated. The FLIPR measured a 10 second baseline and then added 10 μl of 2X compounds (or controls). Changes in fluorescence were monitored for an additional 5 minutes. After a 5 minute pre-incubation, 20 μl of 2X Englerin A (with 1X compound or controls) was added to the cell plate. The final Englerin A stimulation concentration in the assay was 100 nM. After the Englerin A addition, changes in fluorescence were monitored for an additional 5 minutes.
Compound modulation of TRPC4 calcium response was determined as follows. After the Englerin A, fluorescence was monitored for a 5-minute period. The maximum relative fluorescence response (minus the control response of 1 μM of an internal control compound known to maximally block TRPC4 calcium response, the “REF INHIB” in the formula below) was captured and exported from the FLIPR.
Compound effect is calculated as % inhibition using the following formula:
[formula] wherein “RFU” is the relative fluorescent units.
As for `O=c1[nH]ncc(N2CCc3c(ncnc3Oc3ccccc3Cl)C2)c1Cl` [Compound 101], the pIC50 was over 7.30.

With `Nc1nc2c(c(Oc3ccccc3C(F)(F)F)n1)CCN(c1cn[nH]c(=O)c1Cl)C2` [Compound 102], the negative logarithm of the IC50 (pIC50) was over 7.30.

For `O=c1[nH]ncc(N2CCc3c(ncnc3Oc3ccccc3C(F)F)C2)c1Cl` [Compound 103, 4-Chloro-5-[4-[2-(difluoromethyl)phenoxy]-5H,6H,7H,8H-pyrido[3,4-d]pyrimidin-7-yl]-2,3-dihydropyridazin-3-one], the pIC50 is over 7.30.

On to `O=c1[nH]ncc(N2CCc3c(ncnc3Oc3ccc(F)cc3C(F)F)C2)c1Cl` [Compound 105], for which the negative logarithm of the IC50 (pIC50) was over 7.30.

As for `O=c1[nH]ncc(N2CCc3c(ncnc3Oc3cc(F)ccc3C(F)(F)F)C2)c1Cl` [Compound 106], the negative-log IC50 (pIC50) was 6.30 to 7.30.

For the molecule `O=c1[nH]ncc(N2CCc3c(ncnc3Oc3cnccc3C(F)(F)F)C2)c1Cl` [Compound 107], the pIC50 was 6.30 to 7.30.

With `N#Cc1cccc(Oc2ncnc3c2CCN(c2cn[nH]c(=O)c2Cl)C3)c1Cl` [Compound 108, 2-Chloro-3-[[7-(5-chloro-6-oxo-1,6-dihydropyridazin-4-yl)-5H,6H,7H,8H-pyrido[3,4-d]pyrimidin-4-yl]oxy]benzonitrile], the pIC50 is 6.00 to 6.30.

With `CCc1c(F)cccc1Oc1ncnc2c1CCN(c1cn[nH]c(=O)c1Cl)C2` [Compound 109, 4-Chloro-5-[4-(2-ethyl-3-fluorophenoxy)-5H,6H,7H,8H-pyrido[3,4-d]pyrimidin-7-yl]-2,3-dihydropyridazin-3-one], the pIC50 was 6.30 to 7.30.

Consider `COc1nc2c(c(Oc3ccccc3C(F)(F)F)n1)CCN(c1cn[nH]c(=O)c1Cl)C2` [Compound 110, 4-Chloro-5-[2-methoxy-4-[2-(trifluoromethyl)phenoxy]-5H,6H,7H,8H-pyrido[3,4-d]pyrimidin-7-yl]-2,3-dihydropyridazin-3-one], for which the pIC50 is over 7.30.

Take `Nc1nc2c(c(Oc3ccc(F)cc3Cl)n1)CCN(c1cn[nH]c(=O)c1Cl)C2` [Compound 112, 5-[2-amino-4-(2-chloro-4-fluorophenoxy)-5H,6H,7H,8H-pyrido[3,4-d]pyrimidin-7-yl]-4-chloro-2,3-dihydropyridazin-3-one]: the negative-log IC50 (pIC50) was 6.30 to 7.30.

`Nc1nc2c(c(Oc3ccccc3Cl)n1)CCN(c1cn[nH]c(=O)c1Cl)C2` [Compound 113]: the pIC50 was 6.30 to 7.30.

Turning to `O=c1[nH]ncc(N2CCc3c(nc(CO)nc3Oc3ccc(F)cc3Cl)C2)c1Cl` [Compound 114], the negative-log IC50 (pIC50) is over 7.30.

In the case of `O=c1[nH]ncc(N2CCc3c(nc(NCCO)nc3Oc3ccccc3C(F)(F)F)C2)c1Cl` [Compound 115, 4-chloro-5-[2-[(2-hydroxyethyl)amino]-4-[2-(trifluoromethyl)phenoxy]-5H,6H,7H,8H-pyrido[3,4-d]pyrimidin-7-yl]-2,3-dihydropyridazin-3-one], the pIC50 is 6.30 to 7.30.

Take `Nc1nc2c(c(Oc3ccc(F)cc3C(F)(F)F)n1)CCN(c1cn[nH]c(=O)c1Cl)C2` [Compound 116]: the pIC50 is over 7.30.

`C[C@@H]1c2ncnc(Oc3ccc(F)cc3Cl)c2CCN1c1cn[nH]c(=O)c1Cl` [Compound 118, 4-chloro-5-[(8R)-4-(2-chloro-4-fluorophenoxy)-8-methyl-5H,6H,7H,8H-pyrido[3,4-d]pyrimidin-7-yl]-2,3-dihydropyridazin-3-one]: the negative-log IC50 (pIC50) is 6.30 to 7.30.

For `C[C@@H](O)c1nc2c(c(Oc3ccc(F)cc3Cl)n1)CCN(c1cn[nH]c(=O)c1Cl)C2` [Compound 119], the negative logarithm of the IC50 (pIC50) was over 7.30.

With `O=c1[nH]ncc(N2CCc3c(ccnc3Oc3ccc(F)cc3C(F)(F)F)C2)c1Cl` [Compound 120, 4-chloro-5-[5-[4-fluoro-2-(trifluoromethyl)phenoxy]-1,2,3,4-tetrahydro-2,6-naphthyridin-2-yl]-2,3-dihydropyridazin-3-one], the negative-log IC50 (pIC50) is over 7.30.

What is called pIC50 is −log10 of the IC50, conventionally taken in molar units.
